Reference: patent US20100022637A1, “IDENTIFICATION OF ANTI-CANCER COMPOUNDS AND COMPOUNDS FOR TREATING HUNTINGTON'S DISEASE AND METHODS OF TREATMENT THEREOF” (THE TRUSTEES OF COLUMBIA UNIVERSITY IN THE CITY OF NEW YORK, priority 2005, published 2010)

Assays:
caspases = experiment: Caspase assay (fluorogenic AFC substrates); type: cell-based, rat; conditions: 50 μM; ST14A and N548 mutant cells, serum deprivation 39° C.
Description: Caspase activity was measured using a fluorogenic assay (Biovision Inc. CA), based on cleavage of AFC (7-amino-4-trifluoromethyl coumarin) from specific AFC-conjugated peptide substrates by activated caspases. Each cell line was seeded at 10^6 cells/plate, incubated overnight at 33° C., and then incubated for 6 h at 39° C. in 0.5% IFS containing medium with or without BOC-D-fmk (50 μM). Four plates/sample were harvested in lysis buffer provided by the manufacturer. Peptide substrates were added to the cell lysate or to lysis buffer (control), incubated at 37° C. for 2 h, and fluorescence (ex 355/em 510 nm) measured on a plate reader (Perkin Elmer Victor^3). Fluorescence intensities of controls were subtracted from sample intensity and the resulting value normalized to protein in each sample (Bradford Assay from BioRad; Hercules, Calif.).

parental ST14A cells = experiment: Cell death rescue in parental cells (selectivity counter screen); type: cell-based, rat; conditions: in words
Description: Cell death is indicated by a decrease in fluorescence. […] (with 5% CO2).
Identification of selective inhibitors of mutant-htt toxicity: As a first step towards probing mechanisms of action of these compounds, it was tested whether compounds selectively targeted pathways that are perturbed by mutant htt or if they suppressed a general death mechanism. Caspase activation was tested to see if it contributed to cell death in this model, since caspase-dependent pathways have been broadly implicated in cell death and in HD (Thornberry, N. and Y. Lazebnik, Science 1998, 281:1312-6; Sanchez Mejia, R and R. Friedlander Neuroscientist 2001, 7: 480-9; Hickey M. and M. Chesselet, Prog Neuropsychopharmacol Biol Psych 2003, 27: 255-65). Caspase activation was monitored via measuring the cleavage of specific fluorogenic caspase substrates. […] The decreased caspase activation in WT N548 cells was consistent with relative protection of these cells from cell death. […] Thus, the ability of a compound to rescue cell death in ST14A cells could be used as a selectivity filter to differentiate compounds that were selective for pathways selective for mutant htt induced cell death. The selectivity of rescue by a compound was determined by assessing rescue of cell death in parental ST14A cells. […]

N548 mutant cells = experiment: in vitro
RKO cells [1] = experiment: Flow cytometry cell cycle distribution, RKO; type: cell-based, human; conditions: 24 h, propidium iodide
Description: (§1) RKO, RKO-E6 or HeLa cells were seeded in 20-cm dishes in 10 ml of growth medium. Cells were allowed to adhere and then treated with the selected compounds for 24 h. The treated cells were collected, washed 2× with PBS and counted. The cell pellet was re-suspended in 500 μl of ice cold PBS and 2-5 ml of cold 70% ethanol (−20° C.) were added. Cells were fixed for 1 h or overnight. 5-10 million cells were placed into a 15-ml conical tube and centrifuged at 1000 g. Cells were washed 2× with 1% calf serum in PBS. Cells were resuspended in 800 μl of 1% calf serum in PBS and 100 μl of Rnase (1 mg/ml) and 100 μl of propidium iodide (400 μg/ml) added. Cells were incubated at 37° C. for 30 min and then analyzed on flow cytometer.

p53 = experiment: Western blot of p53 (p21, MDM2) levels; type: cell-based, human; conditions: RKO-E6 cells; in words
Description: Protein content was quantified using a BioRad protein assay reagent (BioRad, cat #500-0006). Equal amounts of protein were resolved on SDS-polyacrylamide gels. Proteins were transferred onto a PVDF membrane, blocked with 5% milk, and incubated with the appropriate primary and secondary antibodies. […] To test for equivalent loading in each lane, blots were stripped, blocked and probed with an anti-eIF-4E antibody.

RKO cells [2] = experiment: Alamar Blue viability assay, RKO; type: cell-based, human; conditions: in words
Description: (§2) RKO colon carcinoma, human (ATCC, order # CRL-2577), RKO-E6 colon carcinoma transfected with HPV E6 inserted in pCMV.3 (ATCC, order # CRL-2578) were grown in MEM with 2 mM L-glutamine and Earle's BBS adjusted to contain 1.5 g/L NaHCO3, 0.1 mM non-essential amino acids and 1.0 mM sodium pyruvate, and supplemented with 10% fetal bovine serum, penicillin and streptomycin (pen/strep). Both cell lines were incubated at 37° C. in a humidified incubator containing 5% CO2.
The Alamar Blue assay incorporates a fluorimetric/colorimetric growth indicator that changes color in the response to chemical reduction by viable cells (Nociari 1998). Cells were seeded at a density of 3,000 cells (57 μl) per well in a 384-well black, clear-bottom plates using a syringe bulk dispenser (Zymark Sciclone ALH). […] Fluorescence intensity was determined using a Packard Fusion platereader with a 535 nm excitation filter and a 590 nm emission filter. The average fluorescence for the whole plate was used as a positive control. Average percentage inhibition for each well was determined using our freely available SLIMS software (Kelley et al., 2004). […]
Each cell line (RKO, RKO-E6, HeLa and TC32) was treated with a dose combination matrix of doxorubicin and a selected hit compound. […] The average percent inhibition of cell proliferation, measured with Alamar Blue, was determined using the following formula: […]

RKO-E6 cells [3] = experiment: Alamar Blue viability assay, RKO-E6; type: cell-based, human; conditions: for effect on doxorubicin's lethality in RKO-E6 cells: co-treatment with 0.5 μg/ml doxorubicin, 24 h
Description: as §2
The Alamar Blue assay incorporates a fluorimetric/colorimetric growth indicator that changes color in the response to chemical reduction by viable cells (Nociari 1998). Cells were seeded at a density of 3,000 cells (57 μl) per well in a 384-well black, clear-bottom plates using a syringe bulk dispenser (Zymark Sciclone ALH). Three microliters were removed from a compound daughter plate using a 384 fixed cannula head and added to the assay plate, making the final concentration 4 μg/ml. The plates were incubated for 24 h at 37° C. 10 μl of 40% Alamar Blue (Biosource Int., cat #DAL1100) solution in media was added to each well (1:10 dilution). The assay plates were incubated for 16h. Fluorescence intensity was determined using a Packard Fusion platereader with a 535 nm excitation filter and a 590 nm emission filter. The average fluorescence for the whole plate was used as a positive control. Average percentage inhibition for each well was determined using our freely available SLIMS software (Kelley et al., 2004).
The daughter plates for the 2-fold dilution series were prepared with a Zymark Sciclone ALH by diluting the replica daughter plates to obtain compound concentrations from 8 μg/ml-0.008 μg/ml (columns 8-18). Columns 1-7 were used as untreated control. RKO-E6 cells were seeded at the density of 3,000 per well in 55 μl, and 5 μl were added from the daughter plate. RKO cells were seeded at the density of 2,000 per well in 55 μl, and 5 μl were added from the daughter plate. The assay was incubated for 24 h at 37° C. 10% Alamar Blue was added to each well and the assay was incubated for 16 h (see above). Compounds for retesting were purchased from the manufacturers or from Sigma-Aldrich (see above). Stocks were prepared in DMSO at 4 mg/ml.
(§3) Each cell line (RKO, RKO-E6, HeLa and TC32) was treated with a dose combination matrix of doxorubicin and a selected hit compound. Each treatment was done in a triplicate in 384-well format. The average percent inhibition of cell proliferation, measured with Alamar Blue, was determined using the following formula: […]

RKO-E6 cells [4] = experiment: Flow cytometry cell cycle distribution, RKO-E6; type: cell-based, human; conditions: 24 h, propidium iodide
Description: as §1

[5] = test system: HeLa, TC32, A673, BJELR cells; experiment: Alamar Blue viability assay, other cancer cell lines; type: cell-based; conditions: TC32 (A673 for T55D7)
Description: as §3

N2 worms = conditions: 6 mM; cited from earlier work
topoisomerase IIα = experiment: Western blot of topoisomerase IIα level; type: cell-based, human; conditions: RKO and/or RKO-E6 cells; in words
Description: Antibodies were obtained form the following suppliers: p53 (Oncogene/Calbiochem, cat #OP43), p21 (Santa Cruz Biotechnology inc., cat #sc-817), MDM2 (Santa Cruz Biotechnology Inc., cat #sc-965), Topoisomerase IIα (TopoGEN, cat #2011-1), Topoisomerase I (BD PharMingen, cat #556597), Cyclin B (BD Transduction Laboratories, cat #610219), Cyclin A (BD Transduction Laboratories, cat #611268), Anti-Fluorescein-HRP (Molecular Probes, cat #A21253), Anti-biotin-HRP (Cell Signaling Technology, cat #7075, Jackson ImmunoResearch Laboratories, cat #200-032-096), eIF4E (Santa Cruz Biotechnology Inc., cat #sc-9976 HRP).
Cells were lysed in denaturing lysis buffer (50 mM HEPES KOH [pH 7.4], 40 mM NaCl, 2 mM EDTA, 1.5 mM Na3VO4, 50 mM NaF, 10 mM sodium pyrophosphate, 10 mM sodium β-glycerophosphate, 0.5% Triton X-100, and protease inhibitor tablet [Roche, cat #11777700]). Protein content was quantified using a BioRad protein assay reagent (BioRad, cat #500-0006). Equal amounts of protein were resolved on SDS-polyacrylamide gels. Proteins were transferred onto a PVDF membrane, blocked with 5% milk, and incubated with the appropriate primary and secondary antibodies. […]

COC(=O)CC(NC(=O)OC(C)(C)C)C(=O)CF [BOC-D-fmk, reference compound]
caspase activation (caspases): prevented caspase activation | rescue of cell death in parental ST14A cells (parental ST14A cells): rescued cell death | rescue of cell death in mutant N548 cells (N548 mutant cells; in words): rescued cell death | EC50 (N548 mutant cells; nonselective hits (rescue also parental ST14A), 0.5% IFS, 39° C., 3 d): 25 µM | TC50 (N548 mutant cells; nonselective hits, maximum concentration tested 80 μM): ND(80) | Activity (N548 mutant cells; nonselective hits, scale not defined): 3

S=C1N(CN2CCOCC2)CCN1CN1CCOCC1 [Compound T55D7, 1,3-bis(4-morpholinylmethyl)-2-imidazolidinethione]
cell cycle effect in RKO cells (RKO cells [1]): virtually no changes in the cell cycle | p53, p21, MDM2 levels (p53): did not change p53 concentration | effect on doxorubicin's lethality in RKO cells (RKO cells [2]): increase both doxorubicin's and camptothecin's lethality | concentrations with doxorubicin-independent lethality (RKO-E6 cells [3]; absence of doxorubicin): 30 to 100 µM | effect on doxorubicin's lethality in RKO-E6 cells (RKO-E6 cells [3]; in words): increase both doxorubicin's and camptothecin's lethality | effect on camptothecin's lethality (RKO-E6 cells [3]; co-treatment with camptothecin, in words): increase both doxorubicin's and camptothecin's lethality | effect on podophyllotoxin's lethality (RKO-E6 cells [3]; co-treatment with podophyllotoxin, in words): did not increase the microtubule inhibitor podophylotoxin's lethality | Bliss Independence analysis of combination with doxorubicin (RKO-E6 cells [3]; combination dose matrix): exceeded Bliss Independence with doxorubicin at multiple doses | cell cycle effect in RKO-E6 cells (RKO-E6 cells [4]): pronounced S-phase arrest | effect on doxorubicin's potency in other cell lines [5]: upregulated doxorubicin's potency in other cell lines

C[n+]1ccc(-c2cc[n+](C)cc2)cc1 [Paraquat]
toxicity in worms (N2 worms): toxic

C[C@@H]1C[C@@H]([C@H](O)CC2CC(=O)NC(=O)C2)C(=O)[C@@H](C)C1 [cycloheximide]
p53, p21, MDM2 levels (p53): caused a disappearance of p53 and p21 | effect on doxorubicin's lethality in RKO-E6 cells (RKO-E6 cells [3]; in words): potentiated doxorubicin's lethality | topoisomerase IIα levels (topoisomerase IIα): caused increased topoisomerase IIα levels
